Test results from patent publication US9637469B2, “Pyridine derivative” (Teijin Pharma Limited, priority 2012, dated 2017).

Molecular target: T1, human URAT1 (Homo sapiens, UniProt Q96S37)
T1 construct: Full-length cDNA of human URAT1 (hURAT1)
T1 sequence (Q96S37 1-553): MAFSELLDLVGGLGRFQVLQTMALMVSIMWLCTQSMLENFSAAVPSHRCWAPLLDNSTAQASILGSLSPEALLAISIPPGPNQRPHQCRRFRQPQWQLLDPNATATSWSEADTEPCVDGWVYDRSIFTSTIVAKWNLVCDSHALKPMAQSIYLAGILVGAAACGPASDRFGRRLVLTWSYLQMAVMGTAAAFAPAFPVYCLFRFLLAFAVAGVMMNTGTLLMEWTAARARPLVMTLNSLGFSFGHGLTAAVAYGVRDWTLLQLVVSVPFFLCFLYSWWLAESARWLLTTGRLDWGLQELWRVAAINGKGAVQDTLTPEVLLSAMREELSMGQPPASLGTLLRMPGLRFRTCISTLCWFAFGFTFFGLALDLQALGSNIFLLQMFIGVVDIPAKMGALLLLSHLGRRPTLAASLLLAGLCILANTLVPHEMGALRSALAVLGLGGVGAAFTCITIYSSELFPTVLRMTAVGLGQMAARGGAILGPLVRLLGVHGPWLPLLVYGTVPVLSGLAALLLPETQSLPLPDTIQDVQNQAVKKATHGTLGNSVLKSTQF
Test: Test for inhibition of uric acid transport using human URAT1-expressing cells;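 note: three stars up to 0.2 µM two stars 0.2-2 µM one star 2-20 µM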
Assay type: cell-based
Details: HEK 293 cells expressing human URAT1; 14C-labeled uric acid 25 μM; uptake 37° C. for 5 min
Procedure, shortened: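 HEK293 cells stably transfected with full-length hURAT1, preincubated 10 min at 37 °C in HBSS with NaCl replaced by Na gluconate. Uptake of 25 μM ¹⁴C-uric acid with compound ran 5 min at 37 °C, then scintillation counting. IC50 derived from % of DMSO-control URAT1-specific uptake.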

SMILES	Inhibitory Activity (IC50 of uric acid transport inhibition)
Cc1ccc(C)c(Cn2c(-c3cccnc3)nc(C)c2C(=O)O)c1 [Compound A1, 1-(2,5-dimehylbenzyl)-4-methyl-2-(pyridin-3-yl)-1H-imidazole-5-carboxylic acid]	* *
Cc1nc(-c2cccnc2)n(Cc2cccc3ccccc23)c1C(=O)O [Compound A2, 4-methyl-1-(naphthalen-1-ylmethyl)-2-(pyridin-3-yl)-1H-imidazole-5-carboxylic acid]	* *
CCc1nc(-c2cccnc2)n(Cc2cc(Cl)ccc2Cl)c1C(=O)O [Compound A14, 1-(2,5-dichlorobenzyl)-4-ethyl-2-(pyridin-3-yl)-1H-imidazole-5-carboxylic acid]	* * *
Cc1cncc(-c2ccc(C(=O)O)n2Cc2cc(Cl)ccc2Cl)c1 [Compound B13, 1-(2,5-dichlorobenzyl)-2-(5-methylpyridin-3-yl)-1H-pyrrole-5-carboxylic acid]	* * *
Cc1cncc(-c2ccc(C(=O)O)n2Cc2csc3cccc(Cl)c23)c1 [Compound B15, 1-((4-chlorobenzo[b]thiophen-3-yl)methyl)-2-(5-methylpyridin-3-yl)-1H-pyrrole-5-carboxylic acid]	* * *
O=C(O)c1ccc(-c2cncc(Cl)c2)n1Cc1cc(Cl)ccc1Cl [Compound B17, 2-(5-chloropyridin-3-yl)-1-(2,5-dichlorobenzyl)-1H-pyrrole-5-carboxylic acid]	* * *
O=C(O)c1ccc(-c2cccnc2)n1Cc1cccc2cccnc12 [Compound B19, 2-(pyridin-3-yl)-1-(quinolin-8-ylmethyl)-1H-pyrrole-5-carboxylic acid]	* *
O=C(O)c1ccc(-c2cncc(F)c2)n1Cc1cccc2ccsc12 [Compound B22, 1-(benzo[b]thiophen-7-ylmethyl)-2-(5-fluoropyridin-3-yl)-1H-pyrrole-5-carboxylic acid]	* * *
CS(=O)(=O)NC(=O)c1ccc(-c2cncc(F)c2)n1Cc1cc(Cl)ccc1Cl [Compound B26, 1-(2,5-dichlorobenzyl)-2-(5-fluoropyridin-3-yl)-N-(methylsulfonyl)-1H-pyrrole-5-carboxamide]	* * *
O=C(NS(=O)(=O)C1CC1)c1ccc(-c2cncc(F)c2)n1Cc1cc(Cl)ccc1Cl [Compound B27, N-(cyclopropylsulfonyl)-1-(2,5-dichlorobenzyl)-2-(5-fluoropyridin-3-yl)-1H-pyrrole-5-carboxamide]	* * *
CS(=O)(=O)NC(=O)c1ccc(-c2cccnc2)n1Cc1cc(Cl)ccc1Cl [Compound B28, 1-(2,5-dichlorobenzyl)-N-(methylsulfonyl)-2-(pyridin-3-yl)-1H-pyrrole-5-carboxamide]	* * *
O=C(NS(=O)(=O)C1CC1)c1ccc(-c2cccnc2)n1Cc1cc(Cl)ccc1Cl [Compound B31, N-(cyclopropylsulfonyl)-1-(2,5-dichlorobenzyl)-2-(pyridin-3-yl)-1H-pyrrole-5-carboxamide]	* * *
O=C(O)/C=C/c1ccc(-c2cccnc2)n1Cc1cccc2ccccc12 [Compound B33, (E)-3-(1-(naphthalen-1-ylmethyl)-2-(pyridin-3-yl)-1H-pyrrole-5-yl)acrylic acid]	* * *

Continued, values first:

Inhibitory Activity (IC50 of uric acid transport inhibition)	SMILES
* *	Cc1nc(-c2cccnc2)n(Cc2csc3cccc(Cl)c23)c1C(=O)O [Compound A7, 1-((4-chlorobenzo[b]thiophen-3-yl)methyl)-4-methyl-2-(pyridin-3-yl)-1H-imidazole-5-carboxylic acid]
* * *	Cc1nc(-c2cccnc2)n(Cc2cc(Cl)ccc2Cl)c1C(=O)O [Compound A13, 1-(2,5-dichlorobenzyl)-2-(pyridin-3-yl)-4-methyl-1H-imidazole-5-carboxylic acid]
* * *	O=C(O)c1ccc(-c2cncc(F)c2)n1Cc1cc(Cl)ccc1Cl [Compound B14, 1-(2,5-dichlorobenzyl)-2-(5-fluoropyridin-3-yl)-1H-pyrrole-5-carboxylic acid]
* * *	O=C(O)c1ccc(-c2cncc(F)c2)n1Cc1csc2cccc(Cl)c12 [Compound B16, 1-((4-chlorobenzo[b]thiophen-3-yl)methyl)-2-(5-fluoropyridin-3-yl)-1H-pyrrole-5-carboxylic acid]
* * *	O=C(O)c1ccc(-c2cncc(Cl)c2)n1Cc1csc2cccc(Cl)c12 [Compound B18, 1-((4-chlorobenzo[b]thiophen-3-yl)methyl)-2-(5-chloropyridin-3-yl)-1H-pyrrole-5-carboxylic acid]
* * *	O=C(O)c1ccc(-c2cccnc2)n1Cc1cccc2ccsc12 [Compound B20, 1-(benzo[b]thiophen-7-ylmethyl)-2-(pyridin-3-yl)-1H-pyrrole-5-carboxylic acid]
* * *	Cc1cncc(-c2ccc(C(=O)O)n2Cc2cccc3ccsc23)c1 [Compound B21, 1-(benzo[b]thiophen-7-ylmethyl)-2-(5-methylpyridin-3-yl)-1H-pyrrole-5-carboxylic acid]
* * *	O=C(O)c1ccc(-c2cncc(Cl)c2)n1Cc1cccc2ccsc12 [Compound B23, 1-(benzo[b]thiophen-7-ylmethyl)-2-(5-chloropyridin-3-yl)-1H-pyrrole-5-carboxylic acid]
* * *	CS(=O)(=O)NC(=O)c1ccc(-c2cccnc2)n1Cc1cccc2ccccc12 [Compound B24, N-(methylsulfonyl)-1-(naphthalen-1-ylmethyl)-2-(pyridin-3-yl)-1H-pyrrole-5-carboxamide]
* * *	O=C(NS(=O)(=O)C1CC1)c1ccc(-c2cccnc2)n1Cc1cccc2ccccc12 [Compound B25, N-(cyclopropylsulfonyl)-1-(naphthalen-1-ylmethyl)-2-(pyridin-3-yl)-1H-pyrrole-5-carboxamide]
* * *	CS(=O)(=O)NC(=O)c1ccc(-c2cncc(Cl)c2)n1Cc1cc(Cl)ccc1Cl [Compound B29, 2-(5-chloropyridin-3-yl)-1-(2,5-dichlorobenzyl)-N-(methylsulfonyl)-1H-pyrrole-5-carboxamide]
* * *	O=C(NS(=O)(=O)C1CC1)c1ccc(-c2cncc(Cl)c2)n1Cc1cc(Cl)ccc1Cl [Compound B30, 2-(5-chloropyridin-3-yl)-N-(cyclopropylsulfonyl)-1-(2,5-dichlorobenzyl)-1H-pyrrole-5-carboxamide]
* * *	Cc1cncc(-c2ccc(C(=O)NS(=O)(=O)C3CC3)n2Cc2cc(Cl)ccc2Cl)c1 [Compound B32, N-(cyclopropylsulfonyl)-1-(2,5-dichlorobenzyl)-2-(5-methylpyridin-3-yl)-1H-pyrrole-5-carboxamide]
* * *	Cc1cncc(-c2ccc(/C=C/C(=O)O)n2Cc2cc(Cl)ccc2Cl)c1 [Compound B34, (E)-3-(1-(2,5-dichlorobenzyl)-2-(5-methylpyridin-3-yl)-1H-pyrrol-5-yl)acrylic acid]
* * *	O=C(O)/C=C/c1ccc(-c2cncc(F)c2)n1Cc1cc(Cl)ccc1Cl [Compound B35, (E)-3-(1-(2,5-dichlorobenzyl)-2-(5-fluoropyridin-3-yl)-1H-pyrrol-5-yl)acrylic acid]

Test system: Cebus apella
Test: Test for drug efficacy in Cebus apella (uric acid excretion rate)
Assay type: in vivo
Details: 3 mg/kg to 30 mg/kg in 0.5% methylcellulose into stomach via the nasal cavity, up to 24 hours
Description: A test compound (3 mg/kg to 30 mg/kg) prepared by suspending in a 0.5% methylcellulose solution was administered to Cebus apella into stomach via the nasal cavity using a disposable catheter and a syringe barrel. Blood samples were taken before administration and 30 minutes, 1 hour, 2 hours, 4 hours, 8 hours, 12 hours, and 24 hours after administration; and urine samples were collected for the time intervals of immediately to 4 hours after administration, from 4 hours to 8 hours after administration, from 8 hours to 16 hours after administration, and from 16 hours to 24 hours after administration. Concentrations of uric acid and creatinine in the blood and urine samples collected were measured by an automatic analyzer (JEOL Ltd.). Uric acid and creatine were measured using L-type Wako UA.F (Wako Pure Chemicals Industries, Ltd.) and L-type Creatine F (Wako Pure Chemicals Industries, Ltd.) respectively. Uric acid clearance was calculated from the uric acid concentrations in blood and urine and, similarly, creatinine clearance was calculated from the creatinine concentrations.

SMILES	uricosuric effect (uric acid excretion rate)
Cc1ccc(C)c(Cn2c(-c3cccnc3)nc(C)c2C(=O)O)c1 [Compound A1, 1-(2,5-dimehylbenzyl)-4-methyl-2-(pyridin-3-yl)-1H-imidazole-5-carboxylic acid]	excellent uricosuric effect was confirmed
Cc1nc(-c2cccnc2)n(Cc2cccc3ccccc23)c1C(=O)O [Compound A2, 4-methyl-1-(naphthalen-1-ylmethyl)-2-(pyridin-3-yl)-1H-imidazole-5-carboxylic acid]	excellent uricosuric effect was confirmed
Cc1nc(-c2cccnc2)n(Cc2csc3cccc(Cl)c23)c1C(=O)O [Compound A7, 1-((4-chlorobenzo[b]thiophen-3-yl)methyl)-4-methyl-2-(pyridin-3-yl)-1H-imidazole-5-carboxylic acid]	excellent uricosuric effect was confirmed
Cc1nc(-c2cccnc2)n(Cc2cc(Cl)ccc2Cl)c1C(=O)O [Compound A13, 1-(2,5-dichlorobenzyl)-2-(pyridin-3-yl)-4-methyl-1H-imidazole-5-carboxylic acid]	excellent uricosuric effect was confirmed
CCc1nc(-c2cccnc2)n(Cc2cc(Cl)ccc2Cl)c1C(=O)O [Compound A14, 1-(2,5-dichlorobenzyl)-4-ethyl-2-(pyridin-3-yl)-1H-imidazole-5-carboxylic acid]	excellent uricosuric effect was confirmed
